Several values for one entry are separate records, joined by “and”; a condition that tells them apart may be missing. Identical values can stand only once. Toxic doses and inconclusive results are not listed. Rule as the data show it: active = T/C of 150% or more; inactive = T/C below 125%.
Test system: L1210 leukemia ip in BDF1 mice, survival T/C
Assay: NCI In Vivo Anticancer Drug Screen. Data for tumor model L1210 Leukemia (intraperitoneal) in B6D2F1 (BDF1) mice
Conditions: endpoint: mean survival time, higher = longer survival
Outline: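 Tumor cells were implanted, animals were treated, and survival was followed. The result divides the treated measurement by the vehicle-control measurement.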

[1] = dose: 100.0 mg/kg/injection, schedule: Q01DX001 (ip), vehicle: saline
[2] = dose: 100.0 mg/kg/injection, schedule: Q01DX009 (ip), vehicle: saline
[3] = dose: 200.0 mg/kg/injection, schedule: Q01DX001 (ip), vehicle: saline
[4] = dose: 50.0 mg/kg/injection, schedule: Q04DX002 (ip), vehicle: Klucel (hydroxypropylcellulose) (HPC)
[5] = dose: 100.0 mg/kg/injection, schedule: Q01DX009 (ip), vehicle: Klucel (hydroxypropylcellulose) (HPC)
[6] = dose: 100.0 mg/kg/injection, schedule: Q04DX002 (ip), vehicle: Klucel (hydroxypropylcellulose) (HPC)
[7] = dose: 200.0 mg/kg/injection, schedule: Q01DX009 (ip), vehicle: Klucel (hydroxypropylcellulose) (HPC)
[8] = dose: 200.0 mg/kg/injection, schedule: Q04DX002 (ip), vehicle: Klucel (hydroxypropylcellulose) (HPC)
[9] = dose: 400.0 mg/kg/injection, schedule: Q01DX009 (ip), vehicle: Klucel (hydroxypropylcellulose) (HPC)
[10] = dose: 400.0 mg/kg/injection, schedule: Q01DX001 (ip), vehicle: saline
[11] = dose: 50.0 mg/kg/injection, schedule: Q01DX009 (ip), vehicle: saline with Tween-80
[12] = dose: 100.0 mg/kg/injection, schedule: Q01DX009 (ip), vehicle: saline with Tween-80
[13] = dose: 200.0 mg/kg/injection, schedule: Q01DX009 (ip), vehicle: saline with Tween-80
[14] = dose: 100.0 mg/kg/injection, schedule: Q04DX003 (ip), vehicle: Klucel (hydroxypropylcellulose) (HPC)
[15] = dose: 200.0 mg/kg/injection, schedule: Q04DX003 (ip), vehicle: Klucel (hydroxypropylcellulose) (HPC)

Measured: T/C

Cn1nc(C(N)=O)c2c(N)ncnc21
inactive: dose: 7.5 mg/kg/injection, schedule: Q04DX002 (ip), vehicle: Klucel (hydroxypropylcellulose) (HPC) 96 % of control | dose: 15.0 mg/kg/injection, schedule: Q01DX001 (ip), vehicle: carboxymethylcellulose (CMC) 98 % of control | dose: 15.0 mg/kg/injection, schedule: Q04DX002 (ip), vehicle: Klucel (hydroxypropylcellulose) (HPC) 92 % of control | dose: 30.0 mg/kg/injection, schedule: Q01DX001 (ip), vehicle: carboxymethylcellulose (CMC) 102 % of control | dose: 30.0 mg/kg/injection, schedule: Q04DX002 (ip), vehicle: Klucel (hydroxypropylcellulose) (HPC) 96 % of control

Nc1ccc(Cc2ccc(N)c(Br)c2)cc1Br
inactive: dose: 50.0 mg/kg/injection, schedule: Q01DX009 (ip), vehicle: saline 102 % of control | [1] 93 % of control | [2] 98 % of control | [3] 98 % of control

Nc1nc(N)nc(N)n1
inactive: [4] 94 % of control | [5] 92 % of control and 113 % of control | [6] 94 % of control | [7] 92 % of control and 99 % of control | [8] 94 % of control and 105 % of control | [9] 95 % of control and 99 % of control | dose: 400.0 mg/kg/injection, schedule: Q04DX002 (ip), vehicle: Klucel (hydroxypropylcellulose) (HPC) 102 % of control | dose: 800.0 mg/kg/injection, schedule: Q01DX009 (ip), vehicle: Klucel (hydroxypropylcellulose) (HPC) 96 % of control | dose: 1000.0 mg/kg/injection, schedule: Q01DX009 (ip), vehicle: Klucel (hydroxypropylcellulose) (HPC) 103 % of control

CCCOC(=O)CCOC
inactive: [1] 94 % of control | [3] 103 % of control | [10] 103 % of control

CCOP(=O)(OCC)ON=C(Cl)Cl
inactive: dose: 0.78 mg/kg/injection, schedule: Q01DX009 (ip), vehicle: saline 97 % of control | dose: 0.78 mg/kg/injection, schedule: Q04DX002 (ip), vehicle: saline 101 % of control | dose: 1.56 mg/kg/injection, schedule: Q01DX009 (ip), vehicle: saline 97 % of control | dose: 1.56 mg/kg/injection, schedule: Q04DX002 (ip), vehicle: saline 98 % of control | dose: 3.12 mg/kg/injection, schedule: Q01DX009 (ip), vehicle: Klucel (hydroxypropylcellulose) (HPC) 95 % of control | dose: 3.12 mg/kg/injection, schedule: Q01DX009 (ip), vehicle: saline 93 % of control | dose: 3.12 mg/kg/injection, schedule: Q04DX002 (ip), vehicle: saline 101 % of control and 92 % of control | dose: 4.6 mg/kg/injection, schedule: Q01DX009 (ip), vehicle: Klucel (hydroxypropylcellulose) (HPC) 105 % of control | dose: 7.0 mg/kg/injection, schedule: Q01DX009 (ip), vehicle: Klucel (hydroxypropylcellulose) (HPC) 96 % of control

Cc1cc(C)[nH]n1
inactive: [2] 103 % of control | dose: 200.0 mg/kg/injection, schedule: Q01DX009 (ip), vehicle: saline 104 % of control | dose: 400.0 mg/kg/injection, schedule: Q01DX009 (ip), vehicle: saline 100 % of control

COc1cc2c(c(OC)c1OC)-c1ccc(O)c(=O)cc1[C@@H](NC(C)=O)CC2
inactive: dose: 75.0 mg/kg/injection, schedule: Q01DX001 (ip), vehicle: other 90 % of control | dose: 150.0 mg/kg/injection, schedule: Q01DX001 (ip), vehicle: other 119 % of control

CSc1ccc2c(c1)-c1ccccc1C2=O
inactive: dose: 100.0 mg/kg/injection, schedule: Q04DX003 (ip), vehicle: acetone 94 % of control | dose: 200.0 mg/kg/injection, schedule: Q04DX003 (ip), vehicle: acetone 89 % of control | dose: 400.0 mg/kg/injection, schedule: Q04DX003 (ip), vehicle: acetone 93 % of control

CC(=O)NC1CCc2ccccc21 (configuration not stated)
inactive: [4] 102 % of control | [6] 105 % of control | [8] 118 % of control

Cc1cccc(C(C)(C)C#N)c1
inactive: [11] 92 % of control | [12] 101 % of control | [13] 90 % of control

O=C(O)c1ccccc1C(=O)Nc1ccc(O)cc1
inactive: dose: 75.0 mg/kg/injection, schedule: Q01DX009 (ip), vehicle: saline 102 % of control | dose: 150.0 mg/kg/injection, schedule: Q01DX009 (ip), vehicle: saline 100 % of control | dose: 300.0 mg/kg/injection, schedule: Q01DX009 (ip), vehicle: saline 117 % of control

CNc1nc(Cl)nc(Cl)n1
inactive: dose: 100.0 mg/kg/injection, schedule: Q04DX003 (ip), vehicle: saline 87 % of control | dose: 200.0 mg/kg/injection, schedule: Q04DX003 (ip), vehicle: saline 87 % of control

COc1cc(C(=O)COC(C)=O)cc(OC)c1OC(C)=O
inactive: [1] 88 % of control | [3] 89 % of control | [10] 89 % of control

COc1ccc(-c2ccns2)cc1
inactive: dose: 100.0 mg/kg/injection, schedule: Q01DX001 (ip), vehicle: carboxymethylcellulose (CMC) 93 % of control | dose: 200.0 mg/kg/injection, schedule: Q01DX001 (ip), vehicle: carboxymethylcellulose (CMC) 92 % of control

CC(=O)Nc1ccc(/C(C#N)=C/c2ccc(N(C)CCC#N)cc2)cc1
inactive: [5] 98 % of control | [7] 100 % of control | [9] 96 % of control

C=C1C(=O)O[C@@H]2/C=C(/C)[C@@]3(O)C=C[C@](C)(C[C@@H](OC(=O)/C(=C\C)COC(C)=O)[C@@H]12)O3
inactive: dose: 0.06 mg/kg/injection, schedule: Q01DX009 (ip), vehicle: carboxymethylcellulose (CMC) 102 % of control | dose: 0.12 mg/kg/injection, schedule: Q01DX009 (ip), vehicle: carboxymethylcellulose (CMC) 101 % of control | dose: 0.25 mg/kg/injection, schedule: Q01DX009 (ip), vehicle: carboxymethylcellulose (CMC) 98 % of control

CCOC(=O)Nc1cc(Nc2ccc(Cl)cc2)c2ncc(C)nc2n1
inactive: dose: 25.0 mg/kg/injection, schedule: Q04DX003 (ip), vehicle: Klucel (hydroxypropylcellulose) (HPC) 102 % of control | dose: 50.0 mg/kg/injection, schedule: Q04DX003 (ip), vehicle: Klucel (hydroxypropylcellulose) (HPC) 102 % of control | [14] 96 % of control

N#C/C(=C/c1ccnc2ccccc12)c1ccccc1
inactive: [14] 101 % of control | [15] 101 % of control | dose: 400.0 mg/kg/injection, schedule: Q04DX003 (ip), vehicle: Klucel (hydroxypropylcellulose) (HPC) 95 % of control

CC(=O)Nc1cccc(/C=C/c2nc(N)nc(N)c2-c2ccc(Cl)cc2)c1
inactive: dose: 100.0 mg/kg/injection, schedule: Q01DX001 (ip), vehicle: saline with Tween-80 98 % of control | dose: 200.0 mg/kg/injection, schedule: Q01DX001 (ip), vehicle: saline with Tween-80 87 % of control | dose: 400.0 mg/kg/injection, schedule: Q01DX001 (ip), vehicle: saline with Tween-80 90 % of control

CC(=O)Nc1ccc(NC(=S)Nc2ccc(NC(C)=O)cc2)cc1
inactive: dose: 50.0 mg/kg/injection, schedule: Q01DX009 (ip), vehicle: Klucel (hydroxypropylcellulose) (HPC) 101 % of control | [5] 104 % of control | [14] 97 % of control | [15] 93 % of control

COc1ccc(C2NC(=S)N3C(c4ccc(OC)c(OC)c4)NC(=S)N23)cc1OC (configuration not stated)
inactive: dose: 100.0 mg/kg/injection, schedule: Q01DX009 (ip), vehicle: gum acacia 88 % of control | dose: 100.0 mg/kg/injection, schedule: Q04DX003 (ip), vehicle: gum acacia 95 % of control | dose: 200.0 mg/kg/injection, schedule: Q01DX009 (ip), vehicle: gum acacia 88 % of control | dose: 200.0 mg/kg/injection, schedule: Q04DX003 (ip), vehicle: gum acacia 89 % of control | dose: 400.0 mg/kg/injection, schedule: Q01DX009 (ip), vehicle: gum acacia 90 % of control

O=C1C(=O)c2ccccc2C(O)=C1CC=C1CCCC1
inactive: dose: 100.0 mg/kg/injection, schedule: Q01DX001 (ip), vehicle: water 109 % of control | dose: 100.0 mg/kg/injection, schedule: Q01DX009 (ip), vehicle: water 105 % of control | dose: 200.0 mg/kg/injection, schedule: Q01DX009 (ip), vehicle: water 103 % of control

CC(C)C(=O)c1ccccc1C(=O)O
inactive: [11] 93 % of control | [12] 93 % of control | [13] 93 % of control

CC1=CC(=N/S(=O)(=O)c2ccccc2)/C2CC(C)=C(C)CC2/C1=N\S(=O)(=O)c1ccccc1 (configuration not stated)
inactive: [5] 95 % of control | [14] 95 % of control | [7] 104 % of control | [15] 92 % of control | [9] 103 % of control

O=C(/C=C\c1ccccc1)NCCCCNC(=O)/C=C/c1ccccc1
inactive: [1] 97 % of control | [3] 105 % of control | [10] 87 % of control

Reference: PubChem BioAssay AID248 (DTP/NCI, 2004)
